Test results as given in patent publication US5891913A, “Ophthalmic and aural compositions containing diclofenac potassium” (priority 1994, dated 1999).
“Also recorded” adds a separate entry of the source.

How the values were obtained:
uveitis = test: Uveitis models in rabbits (all the aforementioned animal models: arachidonic acid, argon laser iris photocoagulation, paracentesis); type: in vivo, pigmented rabbits; details: compared to diclofenac sodium
Description: Uveitis is induced in said model by an argon laser iris photocoagulation in pigmented rabbits. Said iris photocoagulation is induced by 500 μm argon laser burns (power 750 mW, duration 0.1 sec). The inflammatory processes resulting therefrom are measured every 30 minutes after the laser induced photo-coagulation, by using the laser cell flare meter (LCFM) technique.
In addition to the non invasive LCFM evaluation of the above mentioned animal model, an invasive evaluation is carried out. Therefore the rabbits are sacrificed one hour and in regular intervals after which said eyes have been subjected to the traumatic uveitis by photocoagulation, and the aqueous humor of said rabbit eyes is sampled. The aqueous protein levels, cell counts and prostaglandins (PGE2, PGD2, 6-keto PGF1α) which represent the degree of an inflammation are biochemically investigated and quantified.
Another animal model is used for the induction of a traumatic uveitis. It is the induction of a uveitis by the paracentesis of the anterior chamber of the rabbit eye. In analogy to the previously described laser induced uveitis model, drugs to be tested, are again administred prior to the paracentesis challenge. […] The aqueous protein levels are again analyzed, quantified and then correlated with the degree of an inflammation.

eye = test: Pharmacological studies: topical (ocular) tolerance, efficacy, onset and duration of action
[1] = Lens penetration and ocular distribution of 14-C labelled eye drops after multiple topical ocular administration; type: in vivo, chinchilla pigmented rabbits
Description: In a first animal model, the ocular distribution and lens penetration of diclofenac potassium and diclofenac sodium is determined after multiple topical ocular administration of a corresponding eye drop composition. […] At regular intervals post-instillation (0.5, 1.5, 2.0 hours), the animals are sacrificed and both eyes are removed. Said eyes are microdissected and the ocular distribution of the radioactivity is measured by a standard scintillation beta counting method.
Lens penetration and ocular distribution of diclofenac potassium and diclofenac sodium were determined after multiple topical ocular administration of corresponding 14-C labelled eye drop composition into the conjunctival sac of the right eye of pigmented rabbits.
At 0.5, 1.5, 2 hours post-instillation, 5 animals for each time-point and each treatment group were sacrificed and the radioactivity content (in ng-Eq/g of structure) in the cornea, aqueous humor, iris-ciliary body, vitreous, whole blood and plasma was measured. At 2 hours post-instillation, the left eyes were removed and the ocular distribution was measured by a standard scintillation beta counting method. The right lenses were used for autoradiography.
The areas under the curve (AUC: ng-Eq/g of structure versus time) were calculated and statistically compared.

[2] = tested on: arachidonic acid induced uveitis; test: Arachidonic acid induced uveitis, aqueous flare by laser cell flare meter (LCFM)

In the case of O=C(O)Cc1ccccc1Nc1c(Cl)cccc1Cl [diclofenac potassium, potassium 2-[(2,6-dichlorophenyl)amino]-phenyl acetate], the “efficacy in all the aforementioned animal models (in words)” value (uveitis) is reported as “better efficacy”, the “duration of action (in words)” value (eye; e.g. in the eye) is reported as “long lasting duration of action” and the “onset of action (in words)” value (eye; e.g. in the eye) is reported as “surprisingly short onset of action”. The “topical tolerance, e.g. ocular tolerance, and efficacy (in words)” value (eye; in comparison to diclofenac sodium) was “much better topical tolerance, e.g. ocular tolerance, and efficacy”, the “ocular penetration / levels of radioactivity (in words)” value ([1]; in comparison to diclofenac sodium, acetate) was “much superior; also recorded: clearly displayed higher levels of radioactivity” and the “ocular distribution, order of concentrations (in words)” value ([1]; rabbit, in vivo) was “highest concentrations are found in the cornea, and in descending order in the aqueous humor, in the iris ciliary body and in the vitreous”. For the same molecule, the “efficacy / degree of inflammation (in words)” value ([2]; 0.05% diclofenac potassium versus 0.1% diclofenac sodium) was “almost totally suppressed” and the “fold efficacy of diclofenac sodium” value ([2]; taking into account 0.1% versus 0.05% drug concentration) was “more than five fold”.
